Data published in US6921776B1, “Compound” (Sterix Limited, priority 1996, dated 2005).
Where two headings read alike, the source gives them in different places.

Experiments:
[1] = in vivo; cited from earlier work
E1-STS [2] = target: T1, E1-STS (Homo sapiens, UniProt P08842); assay: Substrate test: hydrolysis of coumarin sulphates by placental microsomes in absence or presence of EMATE; conditions: 100 μg, 1 h, placental microsomes ± EMATE 10 μM
T1 sequence (P08842 22-583): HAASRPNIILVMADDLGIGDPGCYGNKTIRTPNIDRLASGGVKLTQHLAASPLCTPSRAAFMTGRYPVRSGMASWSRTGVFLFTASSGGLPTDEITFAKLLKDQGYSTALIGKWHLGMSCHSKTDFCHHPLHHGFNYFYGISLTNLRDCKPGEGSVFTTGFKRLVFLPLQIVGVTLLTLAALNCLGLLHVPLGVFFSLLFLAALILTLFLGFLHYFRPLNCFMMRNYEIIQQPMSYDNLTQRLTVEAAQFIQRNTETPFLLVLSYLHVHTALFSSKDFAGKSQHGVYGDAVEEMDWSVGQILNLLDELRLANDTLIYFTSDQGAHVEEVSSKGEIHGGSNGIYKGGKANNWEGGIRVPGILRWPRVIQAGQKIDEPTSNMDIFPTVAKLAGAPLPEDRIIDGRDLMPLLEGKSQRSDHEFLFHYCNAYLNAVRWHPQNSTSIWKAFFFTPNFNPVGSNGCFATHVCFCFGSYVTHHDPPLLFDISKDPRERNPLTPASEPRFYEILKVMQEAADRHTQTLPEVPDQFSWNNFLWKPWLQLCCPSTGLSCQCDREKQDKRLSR

[3] = Chemical and thermal stability of coumarin sulphate; type: physicochemical; conditions: sodium hydroxide in methanol
E1-STS [4] = target: T1, E1-STS; conditions: previous work, Ref. 28; cited from earlier work
[5] = target: T2, oestrone sulphatase (E1-STS) (Homo sapiens, UniProt P08842); assay: Inhibition of oestrone sulphatase (E1-STS) in intact MCF-7 breast cancer cells; conditions: 10 μM
T2 sequence (P08842 22-583): T1 sequence (P08842 22-583)

oestrone sulphatase = target: T3, oestrone sulphatase (Rattus norvegicus, UniProt P15589); assay: Sulphatase activity in white blood cells of rats after oral dosing; type: in vivo
T3 construct: from tissue; host or cells: white blood cells of orally dosed rats
T3 sequence (P15589 20-577): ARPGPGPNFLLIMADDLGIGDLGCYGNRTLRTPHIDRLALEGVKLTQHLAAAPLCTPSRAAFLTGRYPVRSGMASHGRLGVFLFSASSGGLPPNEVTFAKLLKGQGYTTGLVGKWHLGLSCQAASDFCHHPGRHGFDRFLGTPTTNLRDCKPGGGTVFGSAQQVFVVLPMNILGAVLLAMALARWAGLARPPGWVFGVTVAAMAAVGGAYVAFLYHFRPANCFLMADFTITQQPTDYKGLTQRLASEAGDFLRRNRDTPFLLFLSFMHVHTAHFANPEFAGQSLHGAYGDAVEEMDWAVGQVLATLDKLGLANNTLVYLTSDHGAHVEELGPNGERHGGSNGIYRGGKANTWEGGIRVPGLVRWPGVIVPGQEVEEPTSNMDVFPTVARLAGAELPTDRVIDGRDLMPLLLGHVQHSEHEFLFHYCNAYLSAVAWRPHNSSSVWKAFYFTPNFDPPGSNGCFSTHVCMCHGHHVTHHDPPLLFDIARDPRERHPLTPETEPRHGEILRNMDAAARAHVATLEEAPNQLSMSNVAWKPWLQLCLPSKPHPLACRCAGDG

ovariectomized rats [6] = conditions: oral, from Ref. 31; cited from earlier work
ovariectomised rats = assay: Oestrogenic activity: uterine weight in ovariectomised rats; type: in vivo, rat; conditions: 1 mg/kg s.c. for 5 days
[7] = target: T2, oestrone sulphatase (E1-STS); conditions: cited from earlier work
E1-STS [8] = target: T4, E1-STS (Rattus norvegicus, UniProt P15589); assay: E1-STS activity in uteri of treated ovariectomised rats; type: in vivo; conditions: 1 mg/kg s.c. for 5 days
T4 construct: The E1-STS activity in the uteri obtained from these animals; from tissue; host or cells: uteri of ovariectomised rats dosed in vivo
T4 sequence (P15589 20-577): T3 sequence (P15589 20-577)

[9] = target: T2, oestrone sulphatase (E1-STS); assay: Time- and concentration-dependent inactivation of oestrone sulphatase in placental microsomes (preincubation); type: biochemical
[10] = target: T2, oestrone sulphatase (E1-STS); parameters: endogenous in cells; host or cells: MCF-7 breast cancer cells; conditions: 0.1 μM; cited from earlier work
[11] = target: T2, oestrone sulphatase (E1-STS); conditions: cited from earlier work; for Mode of E1-STS inhibition: literature
[12] = target: T2, oestrone sulphatase (E1-STS); conditions: for E1-STS inhibitory potency compared with COUMATE: placental microsomes
[13] = target: T5, dehydroepiandrosterone sulphatase (DHA-STS) (Homo sapiens, UniProt P08842); conditions: read-out: IC50 for inhibition of DHEA sulphatase in placental microsomes; from Ref. 25; cited from earlier work
T5 sequence (P08842 22-583): T1 sequence (P08842 22-583)

rat liver DHA-STS = target: T6, rat liver DHA-STS (Rattus norvegicus, UniProt P15589); conditions: administered orally or subcutaneously; cited from earlier work
T6 construct: host or cells: rat liver, after dosing in vivo
T6 sequence (P15589 20-577): T3 sequence (P15589 20-577)

ovariectomized rats [14] = assay: Oestrogenicity after oral administration: E1S-stimulated uterine growth in ovariectomized rats; type: in vivo, rat
From the text: The oestrogenic activity of 17 was also studied.

Compound: C[C@]12CC[C@@H]3c4ccc(OS(=O)(=O)O)cc4CC[C@H]3[C@@H]1CCC2=O [E1S, oestrone sulphate]
- Half-life in blood [1]: 10 to 12 h

Compound: Cc1cc(=O)oc2cc(OS(=O)(=O)[O-])ccc12.[Na+] [compound 12, 7-(Sulphoxy)-4-Methylcoumarin, sodium salt]
- Substrate for E1-STS (E1-STS [2]): the coumarin sulphate is indeed a substrate for the sulphatase
- Stability in basic and acidic conditions [3]: stable in bases such as sodium hydroxide in methanol but not in acidic conditions
- Substrate for E1-STS (E1-STS [4]): substrate for E1-STS
- melting point: 172 to 175 °C (dec.)

Compound: NS(=O)(=O)Oc1ccc2c(C(F)(F)F)cc(=O)oc2c1 [compound 16]
- % inhibition of E1-STS in intact MCF-7 cells [5]: 71.5%

Compound: Cc1cc(=O)oc2cc(OS(N)(=O)=O)ccc12 [compound 14]
- Oral activity in rats (oestrone sulphatase): potent oral activity
- % Inhibition of sulphatase activity in white blood cells, MD (oestrone sulphatase; daily for seven days 0.1 mg/kg): 65%
- % Inhibition of sulphatase activity in white blood cells, MD (oestrone sulphatase; daily for seven days 1.0 mg/kg): 85%
- % Inhibition of sulphatase activity in white blood cells, MD (oestrone sulphatase; daily for seven days 10.0 mg/kg): 89%
- Oestrogenicity (ovariectomized rats [6]): devoid of oestrogenicity
- Effect on uterine weight (oestrogenic activity) (ovariectomised rats): did not result in any significant increase in the uterine weight
- % Inhibition ± S.D. of E1-STS activity in placental microsomes ([7]; 0.1 μM (Table 1, reproduced from Ref. 28)): <10%
- % Inhibition ± S.D. of E1-STS activity in placental microsomes ([7]; 1 μM (Table 1, reproduced from Ref. 28)): 63 ± 1%
- Inhibition of E1-STS activity in uteri compared with untreated animals (E1-STS [8]): 89.4%
- Mode of E1-STS inhibition [9]: time- and concentration-dependent manner in a biphasic fashion

Compound: C[C@]12CC[C@@H]3c4ccc(OS(N)(=O)=O)cc4CC[C@H]3[C@@H]1CCC2=O [EMATE, oestrone-3-sulphamate]
- % inhibition of E1-STS activity in intact MCF-7 cells [10]: more than 99%
- Mode of E1-STS inhibition [11]: time- and concentration-dependent manner
- KI (inactivation) ([11]; read-out: Apparent Ki for E1-STS inactivation, from Ref. 25): 670 nM
- IC50 [12]: 25 nM
- IC50 [13]: 110 nM
- Inhibition of rat liver DHA-STS activity (rat liver DHA-STS): 99%

Compound: oestrone-3-S-sulphamate
- Mode of E1-STS inhibition [11]: weaker non-time-dependent inactivators

Compound: CCCc1cc(=O)oc2cc(OS(N)(=O)=O)ccc12 [compound 6, 4-(n-Propyl)coumarin-7-O-sulphamate]
- % Inhibition ± S.D. of E1-STS activity in placental microsomes ([12]; 0.1 μM (Table 1)): 42 ± 2%
- % Inhibition ± S.D. of E1-STS activity in placental microsomes ([12]; 1 μM (Table 1)): 94 ± 1%
- % Inhibition ± S.D. of E1-STS activity in placental microsomes ([12]; 10 μM (Table 1)): 96 ± 1%
- E1-STS inhibitory potency compared with COUMATE [12]: more potent E1-STS inhibitors than COUMATE

Compound: CCc1c(C)c2ccc(OS(N)(=O)=O)cc2oc1=O [compound 8, 3-Ethyl-4-methylcoumarin-7-O-sulphamate]
- % Inhibition ± S.D. of E1-STS activity in placental microsomes ([12]; 0.1 μM (Table 1)): 57 ± 1%
- % Inhibition ± S.D. of E1-STS activity in placental microsomes ([12]; 1 μM (Table 1)): 96 ± 1%
- % Inhibition ± S.D. of E1-STS activity in placental microsomes ([12]; 10 μM (Table 1)): >99%
- E1-STS inhibitory potency compared with COUMATE [12]: more potent E1-STS inhibitors than COUMATE

Compound: NS(=O)(=O)Oc1ccc2c(c1)OC(=O)CC1=C2CCCC1 [compound 22, 6-Oxo-6,7,8,9,10,11-hexahydrodibenz[b,d]oxepin-3-O-sulphamate]
- % Inhibition ± S.D. of E1-STS activity in placental microsomes ([12]; 0.01 μM (Table 2)): <10%
- % Inhibition ± S.D. of E1-STS activity in placental microsomes ([12]; 0.1 μM (Table 2)): 31 ± 5%
- % Inhibition ± S.D. of E1-STS activity in placental microsomes ([12]; 1 μM (Table 2)): 94 ± 2%

Compound: CCc1cc(=O)oc2cc(OS(N)(=O)=O)ccc12 [compound 4, 4-Ethylcoumarin-7-O-sulphamate]
- % Inhibition ± S.D. of E1-STS activity in placental microsomes ([12]; 0.1 μM (Table 1)): 35 ± 1%
- % Inhibition ± S.D. of E1-STS activity in placental microsomes ([12]; 1 μM (Table 1)): 88 ± 1%
- % Inhibition ± S.D. of E1-STS activity in placental microsomes ([12]; 10 μM (Table 1)): >99%
- E1-STS inhibitory potency compared with COUMATE [12]: more potent E1-STS inhibitors than COUMATE

Compound: O=c1oc2cc(OS(=O)(=O)O)ccc2c2c1CCCCC2 [compound 18, 6-Oxo-3-sulfooxy-8,9,10,11-tetrahydro-7H-cyclohepta-[c][1]-benzopyran]
- Substrate for E1-STS (E1-STS [2]): is a substrate for this enzyme

Compound: oestrone-3-N-sulphamate
- Mode of E1-STS inhibition [11]: weaker non-time-dependent inactivators

Compound: Coumarin-7-O-sulphamate [compound 13]
- % Inhibition ± S.D. of E1-STS activity in placental microsomes ([7]; 10 μM (Table 1, reproduced from Ref. 28)): 78 ± 1%
- % Inhibition of E1-STS activity in placental microsomes ([7]; 50 μM (footnote a, Ref. 28)): > 90%

Compound: CCCc1c(C)c2ccc(OS(N)(=O)=O)cc2oc1=O [compound 11, 4Methyl-3-(n-propyl)coumarin-7-O-sulphamate]
- % Inhibition ± S.D. of E1-STS activity in placental microsomes ([12]; 0.1 μM (Table 1)): 83 ± 1%
- % Inhibition ± S.D. of E1-STS activity in placental microsomes ([12]; 1 μM (Table 1)): 97 ± 1%
- % Inhibition ± S.D. of E1-STS activity in placental microsomes ([12]; 10 μM (Table 1)): >99%
- E1-STS inhibitory potency compared with COUMATE [12]: more potent E1-STS inhibitors than COUMATE

Compound: NS(=O)(=O)Oc1ccc2c3c(c(=O)oc2c1)CCCCC3 [compound 17, 6-Oxo-8,9,10,11-tetrahydro-7H-cyclohepta-[c][1]benzopyran-3-O-sulphamate]
- Oestrogenicity (ovariectomized rats [14]): devoid of oestrogenicity
- Oestrogenicity (ovariectomized rats [14]; listed as 667COUMATE): not being oestrogenic

Compound: NS(=O)(=O)Oc1ccc2c3c(c(=O)oc2c1)CCCCCC3 [compound 20, 6-Oxo-7,8,9,10,11,12-hexahydro-cycloocta-[c][1]benzopyran-3-O-sulphamate]
- % Inhibition ± S.D. of E1-STS activity in placental microsomes ([12]; 0.01 μM (Table 2)): 17 ± 2%
- % Inhibition ± S.D. of E1-STS activity in placental microsomes ([12]; 0.1 μM (Table 2)): 89 ± 1%
- Inhibition of E1-STS in placental microsomes ([12]; 1 μM): almost complete inhibition
- % Inhibition ± S.D. of E1-STS activity in placental microsomes ([12]; 1 μM (Table 2)): >99%
